Source: article PMC9293779, “Elucidation of binding preferences of YEATS domains to site-specific acetylated nucleosome core particles” (The Journal of Biological Chemistry, 2022)

Tests used:
[1] = test system: HDAC6; conditions: 1 μM TSA, preincubated 37 °C 1 h, NCP monoacetylated at H4 K5, K8, K12 or K16, 16 h, dot blot
Procedure: First, we examined whether the reconstituted NCP with Kac is functional as a substrate for lysine deacetylases (KDACs) in vitro. We tested activity of histone deacetylase 6 (HDAC6) toward NCP-containing H4 with K5ac, K8ac, K12ac, or K16ac. […] Subsequently, we examined whether a HDAC-specific inhibitor, trichostatin A (TSA), inhibits deacetylation of Kac-containing NCPs.
The NCPs for deacetylation assays were reconstituted using unmodified H2B. In each deacetylation reaction, 200 ng of the Kac-containing NCP was incubated with 50, 100, 200, or 400 ng of HDAC6 (SignalChem; cat. no. H88-30 G) in 20 μl at 37 °C for 16 h. In the inhibitor assays, TSA was added to the reaction mixture not containing NCP to a final concentration of 1 μM and preincubated at 37 °C for 1 h; NCP monoacetylated either at K5, K8, K12, or K16 of H4 was then added. After the reactions, samples were spotted on a nitrocellulose membrane (BioTrace NT Nitrocellulose Transfer Membrane, 0.2 μm, Pall Corporation, cat. no. 66485) and immunoblotted using H4-specific antibodies, each recognizing acetylation at K5, K8, K12, or K16.

[2] = target: YEATS2-YEATS; parameters: method as in 2 sources, one per row (each row's own in cited_ref): ref 50 = [50]; PMID 27103431; doi:10.1038/cr.2016.49; 50 Zhao D. Guan H. Zhao S. Mi W. Wen H. Li Y. YEATS2 is a selective histone crotonylation reader Cell Res. 26 2016 629 632 27103431 10.1038/cr.2016.49 PMC4856769 ||| ref 31 = [31]; PMID 29057918; doi:10.1038/s41467-017-01173-4; 31 Mi W. Guan H. Lyu J. Zhao D. Xi Y. Jiang S. YEATS2 links histone acetylation to tumorigenesis of non-small cell lung cancer Nat. Commun. 8 2017 1088 29057918 10.1038/s41467-017-01173-4 PMC5651844; conditions: cited from earlier work
[3] = test system: ENL-YEATS; test: Peptide array-based binding assay, ENL-YEATS; parameters: species or system human; conditions: 10 μM YEATS domain, 4 °C overnight, anti-GST/HRP chemiluminescence
Procedure: (§1) For the assay using the MODified Histone Peptide Array, the same cDNA sequences encoding human YEATS domains were amplified by PCR and subcloned into a pCR2.1 vector with a GST-encoding sequence inserted after an N-terminal polyhistidine tag. For microscale thermophoresis measurements, a similar construct but without GST was used. Site-directed mutagenesis of AF9-YEATS (residues 1–138) was conducted by PCR using the DpnI restriction enzyme and the following primer sets: 5′-CCTTCACGCATCCTTTCCTCGTCCTAAAC-3′ (forward) and 5′-GGAAAGGATGCGTGAAGGTGAAACACCAC-3′ (reverse) for E57A and 5′-CGACTATGACCTGTTTCTGCATCTCG-3′ (forward) and 5′-GCAGAAACAGTGCATAGTCGAAGCGAAC-3′ (reverse) for D103A. The introduced mutations were verified by DNA sequencing. For X-ray structural analysis, the cDNAs encoding AF9-YEATS (residues 1–138) and YEATS2-YEATS (202–338) were amplified by PCR and subcloned into the pCR2.1 vector encoding GST and the polyhistidine tag. […]
(§2) Assays were performed using the MODified Histone Peptide Array (Active Motif) following the manufacturer’s protocol. […] Protein binding was detected by Chemi-Lumi One Super (Nacalai Tesque). Signal intensities were quantified by using the Protein Array Analyzer for ImageJ (written by Gilles Carpentier, 2010. The macro is available online: http://rsb.info.nih.gov/ij/macros/toolsets/Protein Array Analyzer.txt).

[4] = target: T1, AF9-YEATS (Homo sapiens, UniProt P42568); test: Peptide array-based binding assay, AF9-YEATS; conditions: 10 μM YEATS domain, 4 °C overnight, anti-GST/HRP chemiluminescence
T1 construct: For ITC experiments, the cDNAs encoding AF9-YEATS (residues 1–138) and YEATS2-YEATS (200–349) were inserted into the same vector; polyhistidine tag (N); GST (N); made in house
T1 sequence (P42568 1-138): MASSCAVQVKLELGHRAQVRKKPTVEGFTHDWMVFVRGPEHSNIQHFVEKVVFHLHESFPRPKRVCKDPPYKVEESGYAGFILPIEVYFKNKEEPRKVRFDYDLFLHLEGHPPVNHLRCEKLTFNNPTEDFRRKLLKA
Procedure: as §1, §2

[5] = test system: GAS41-YEATS; test: Peptide array-based binding assay, GAS41-YEATS; parameters: species or system human; conditions: 10 μM YEATS domain, 4 °C overnight, anti-GST/HRP chemiluminescence
Procedure: as §1, §2

Substance: trichostatin A [TSA]
- inhibition of deacetylation by HDAC6 [1]: inhibited deacetylation of all four Kac residues by HDAC6

Substance: K27-crotonylated H3 (1–34) peptide: K27-crotonylated H3 (1–34) peptide of ref 50
- Kd [2]: 31.7 µM

Substance: H4 (1–19) tail peptide diacetylated at K5/K8: peptide on MODified Histone Peptide Array (SGRGKGGKGLGKGGAKRHR; K5 and K8 acetylation; UniProt P62805 2-20, looked up, fragment)
- binding on MODified Histone Peptide Array [3]: bound
- binding on MODified Histone Peptide Array [4]: bound
- binding on MODified Histone Peptide Array [5]: bound
